Measured values as given in patent US20240251785A1, “SMALL MOLECULE ANTAGONISTS AND AGONISTS OF ARTHROPOD KININ RECEPTORS FOR PEST CONTROL” (The Texas A&M University System, priority 2021, published 2024).
Like-named read-outs stand apart in the source and are kept apart here. Where no end group is shown, it is not given here.

Legend:
[1] = system: Human dermal fibroblasts (HDF) cells; experiment: Cytotoxicity assay (resazurin); assay type: cell-based; details: Human dermal fibroblasts cells; tested at 20 μcool L^−1
[2] = target: recombinant tick kinin receptor (BMLK3) (Rhipicephalus microplus, UniProt Q9NHA4); experiment: Dose-response dual-addition calcium fluorescence assay on BMLK3 cells; assay type: cell-based; details: for EC50: read-out: BMLK3 EC50
[3] = system: isolated hindguts from females of the mosquito Aedes aegypti; experiment: Hindgut contraction inhibition assay; details: for effect on hindgut contraction elicited by 1728, in words: compound 100 μmol L^−1, 5 min, then 1728 10 μmol L^−1, 1 h
Protocol: A mosquito colony of Ae. aegypti (Diptera: Culicidae), Liverpool strain, was maintained at 26.5° C. in a 16 h:8 h, light:dark photoperiod and provided with 10% sugar water, as described previously.^31 For the experiment, 3-5-day-old females were used, and the assay was modified based on our previous protocol.^33 A group of six female mosquitoes were cold-anesthetized on a Petri dish placed on ice, where both wings were removed. Mosquitoes became active when the plate was removed from the ice. The dissection dish was filled with Ringer's solution (150 mmol L^−1 NaCl, 25 mmol L^−1 HEPES, 3.4 mmol L^−1 KCl, 7.5 mmol L^−1 NaOH, 1.8 mmol L^−1 NaHCO3. 1 mmol L^−1 MgSO4, 1.7 mmol L^−1 CaCl2 and 5 mmol L^−1 glucose, pH 7.1) at room temperature. To dissect the hindgut of each mosquito, their head and thorax were removed with forceps, and the abdomen was submerged in the Ringer solution. The hindgut, ovaries and Malpighian tubules (MTs), and midgut were taken out by pulling the last segment of the abdomen under the Ringer solution. Then, the ovaries and the majority of the midgut were removed using scissors leaving the intact hindgut and MTs. The isolated tissue was transferred with forceps, gripping on the cuticle of the last segment, into a drop of 30 μL Ringer solution in a 12-well-plate (Greiner Bio-One®, 665,102). After six mosquitoes were dissected as a group, paraffin oil (1-2 mL) was added to each well to cover the saline. The cuticle of the last abdominal segment was drawn out of the Ringer solution into the oil for better observation of the hindgut contraction. The tissues were filmed using an Olympus SZ60 camera (Olympus America Inc., Center Valley, PA, USA) mounted on a dissecting microscope.
First, the hindgut basal contraction rate was recorded by filming each tissue for 60 s. […] After 5 min of incubation at room temperature, 15 μL kinin agonist analog 1728 solution (4×in Ringer solution) was added to the Ringer solution to reach a final concentration of 10 μmol L^−1. After 1 h of incubation, the tissue was filmed again for 60 s.
The contractible hindgut of mosquito consists of a funnel-shaped pylorus located immediately after the posterior midgut, followed by a long, coiled ileum, and a bulbous colon which contains the rectal pads, and a tapering rectal tube at the posterior end.^35 To analyze each video, the hindgut contraction number was counted by observing the contraction occurring at the junction between the pyloric sphincter and the most anterior ileum. The hindgut contraction rate was expressed as the number of contractions observed over 60 s. The fold change in contraction rate was calculated as the contraction rate estimated at 1 h post treatment divided by the basal rate estimated before the treatment with the chemicals. Each treatment was repeated with 30 female mosquitoes independently. All statistical analyses were done by PRISM software (v8, GraphPad). The differences in fold-change of the contraction rates among treatments were analyzed using the nonparametric Kruskal-Wallis test, followed by the Dunn's multiple comparison test. […].

[4] = system: vector-only (V/O) CHO-K1 cells; experiment: Dose-response dual-addition calcium fluorescence assay on vector-only cells; assay type: cell-based
[5] = system: R. microplus kinin receptor; experiment: High-throughput dual-addition calcium fluorescence screen on BMLK3 cells; assay type: cell-based, Rhipicephalus microplus; details: compound 2 μmol L^−1, 5 min, then FFFSWGa 500 nmol L^−1
[6] = summary of 36 validated antagonist hits, BMLK3 cells
[7] = summary of 36 validated antagonist hits, BMLK3 cells, read-out: BMLK3 IC50
[8] = Table 5 analogs, V/O cells, read-out: V/O antagonist IC50
[9] = summary of 36 validated antagonist hits, vector-only cell (V/O)
[10] = first addition, 20 concentrations 28 nM-25 μM
[11] = second addition Rhimi-K-1 1 μmol L^−1, read-out: BMLK3 IC50
[12] = V/O cells, second addition Rhimi-K-1 1 μmol L^−1, read-out: V/O antagonist IC50

recombinant tick kinin receptor (BMLK3), sequence (Q9NHA4 entry or part of it): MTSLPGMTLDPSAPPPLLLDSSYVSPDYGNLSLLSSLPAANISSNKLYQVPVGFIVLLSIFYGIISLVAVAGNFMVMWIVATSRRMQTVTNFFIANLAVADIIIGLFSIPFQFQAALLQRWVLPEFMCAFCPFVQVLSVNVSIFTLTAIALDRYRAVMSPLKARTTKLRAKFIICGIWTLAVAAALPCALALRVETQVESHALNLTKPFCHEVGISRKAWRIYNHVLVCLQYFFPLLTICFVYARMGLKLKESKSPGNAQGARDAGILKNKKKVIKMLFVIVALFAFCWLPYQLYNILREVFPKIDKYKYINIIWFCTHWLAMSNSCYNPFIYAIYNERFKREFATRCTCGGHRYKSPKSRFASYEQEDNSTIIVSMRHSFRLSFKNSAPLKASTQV

Molecule | HDF average % growth inhibition [1] | Inhibitory Efficacy at 12 μM ([2]; BMLK3 cells) | EC50 ([2]; Table 5 analogs, first addition) | IC50 ([2]; Table 5 analogs, second addition Rhimi-K-1 1 μmol L^−1, read-out: BMLK3 antagonist IC50) | EC50 [2, 6] | IC50 [2, 7] | hindgut contraction rate, in words ([3]; compound 10 μmol L^−1, 1 h after 1728 (data not shown)) | effect on hindgut contraction elicited by 1728, in words [3] | effect on hindgut contraction elicited by 1728, in words ([3]; listed as SACC-0412000) | EC50 ([4]; Table 5 analogs, V/O cells) | IC50 [4, 8] | EC50 [4, 9] | IC50 [4, 9] | antagonist Io (%) [5] | activity type in dose-response assay, in words ([2]; BMLK3 cells, Rhimi-K-1 1 μmol L^−1) | EC50 [2, 10] | IC50 [2, 11] | EC50 ([4]; V/O cells, first addition) | IC50 [4, 12] | hindgut contraction rate, in words ([3]; 1 μmol L^−1, 1 h (data not shown))
O=C1C(=Cc2ccccc2)SC(=S)N1NS(=O)(=O)c1ccccc1 [SACC-0412060] | 6.873% | 91.75% | 9.57 µM | 1.89 µM | 9.57 µM | 1.89 µM | no increase in the hindgut contraction rate was observed | inhibited the increased rate of muscle contraction | significantly reduced the mobility of the hindgut | 9.27 µM | 0.538 µM | 9.27 µM | 0.538 µM |  |  |  |  |  |  | 
C/C(CCC(C)C)=N\N=C(/S)NCc1ccccc1 [SACC-0018618] | 7.327% | 55.77% |  |  | > 25 µM | 4.29 µM |  |  |  |  |  | > 25 µM | > 25 µM | 58% | full agonist | > 25 µM | 4.29 µM | > 25 µM | > 25 µM | 
Cc1ccc(S(=O)(=O)NN2C(=O)C(=Cc3cccc4ccccc34)SC2=S)cc1 [SACC-0412062] | 8.117% | 50.31% |  |  |  |  |  | inhibited the increased rate of muscle contraction |  | 6.26 µM | 7.36 µM | 6.26 µM | 7.36 µM |  |  |  |  |  |  | 
C[C@@](O)(C#Cc1ccccc1)c1ccc(N2CCCCC2)c(F)c1 [SACC-0006795] | −1.773% | 33.05% |  |  | > 25 µM | 17.3 µM |  |  |  |  |  | < 0.0285 µM | > 25 µM | 55% |  | > 25 µM | 17.3 µM | < 0.0285 µM | > 25 µM | 
NPFHAWG-NH2 [aedeskinin 2, reference compound] |  |  |  |  |  |  |  |  |  |  |  |  |  |  |  |  |  |  |  | increase of hindgut contraction rate
